Reference: patent US20210070748A1, “INHIBITORS OF BRUTONS TYROSINE KINASE” (Pharmacyclics LLC, priority 2015, published 2021)

Tests used:
ITK = target: T1, ITK (Homo sapiens, UniProt Q08881); assay: Inhibition of a panel of kinases, in vitro HotSpot kinase assay: ITK; assay type: biochemical; conditions: D-compounds panel data; 1 μM ATP
T1 sequence (Q08881 1-620): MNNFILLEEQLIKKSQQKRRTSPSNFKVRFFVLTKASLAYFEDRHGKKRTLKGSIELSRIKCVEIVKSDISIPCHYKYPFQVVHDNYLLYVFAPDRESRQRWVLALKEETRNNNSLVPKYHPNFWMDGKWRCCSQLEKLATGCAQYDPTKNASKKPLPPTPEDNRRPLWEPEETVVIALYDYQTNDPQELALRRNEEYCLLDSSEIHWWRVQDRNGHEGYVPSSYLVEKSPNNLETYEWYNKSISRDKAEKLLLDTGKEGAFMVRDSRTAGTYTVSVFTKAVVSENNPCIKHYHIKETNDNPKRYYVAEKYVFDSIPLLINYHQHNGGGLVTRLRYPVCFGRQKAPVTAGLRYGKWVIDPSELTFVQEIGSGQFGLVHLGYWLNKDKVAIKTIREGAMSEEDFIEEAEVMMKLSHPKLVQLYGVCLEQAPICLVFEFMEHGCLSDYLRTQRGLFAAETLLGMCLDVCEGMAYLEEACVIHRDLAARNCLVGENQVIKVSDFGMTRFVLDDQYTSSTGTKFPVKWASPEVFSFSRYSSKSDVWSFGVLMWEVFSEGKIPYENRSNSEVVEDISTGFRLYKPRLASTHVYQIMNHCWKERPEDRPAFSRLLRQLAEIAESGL
Method: The degree of inhibition of a panel of kinases is determined using the in vitro HotSpot kinase assay (purified enzymes, ^33P-ATP, an appropriate substrate and 1 μM ATP).

BTK-WT = target: T2, BTK-WT (Homo sapiens, UniProt Q06187); assay: Btk in vitro inhibitory activity (one of Method A TR-FRET, Method B electrophoretic mobility shift, Method C radiometric filter binding); assay type: biochemical; conditions: D-compounds panel data; read-out: IC50 BTK-WT
T2 construct: purified from insect cells as a full-length construct containing an N-terminal 6X-His tag; His6 (N); made in house; host or cells: insect cells (baculovirus Sf21 in Method B)
T2 sequence (Q06187 whole entry): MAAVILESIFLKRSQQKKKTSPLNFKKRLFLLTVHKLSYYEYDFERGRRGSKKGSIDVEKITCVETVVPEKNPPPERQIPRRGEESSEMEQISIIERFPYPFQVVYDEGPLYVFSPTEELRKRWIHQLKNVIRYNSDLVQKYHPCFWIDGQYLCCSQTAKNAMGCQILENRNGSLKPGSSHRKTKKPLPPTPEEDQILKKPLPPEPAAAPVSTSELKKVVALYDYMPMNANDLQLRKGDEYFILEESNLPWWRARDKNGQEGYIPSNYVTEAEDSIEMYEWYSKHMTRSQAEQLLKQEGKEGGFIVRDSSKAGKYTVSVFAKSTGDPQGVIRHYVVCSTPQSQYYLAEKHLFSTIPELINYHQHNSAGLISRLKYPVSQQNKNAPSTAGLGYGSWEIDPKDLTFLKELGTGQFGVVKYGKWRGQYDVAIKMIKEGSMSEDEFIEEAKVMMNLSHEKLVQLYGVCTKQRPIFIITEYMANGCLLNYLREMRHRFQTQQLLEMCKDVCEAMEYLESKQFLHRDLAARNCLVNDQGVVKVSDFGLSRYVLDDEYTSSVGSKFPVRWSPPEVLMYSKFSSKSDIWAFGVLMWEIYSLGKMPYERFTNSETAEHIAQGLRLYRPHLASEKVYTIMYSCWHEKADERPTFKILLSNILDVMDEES

SMILES	IC50 (ITK) [nM]	IC50 (BTK-WT) [nM]
C[C@@H]1[C@H](NC(=O)c2ccc(C(C)(C)O)cc2)CCCN1c1nnc(C(N)=O)c(Nc2cnn(C)c2)n1 [Example D-298, 3-[(2R,3R)-3-[4-(2-hydroxypropan-2-yl)benzamido]-2-methylpiperidin-1-yl]-5-[(1-methyl-1H-pyrazol-4-yl)amino]-1,2,4-triazine-6-carboxamide]	10 to 100	≤ 10
C[C@@H]1[C@H](NC(=O)c2ccc3ncsc3c2)CCCN1c1cnc(C(N)=O)c(Nc2cnn(C)c2)n1 [Example D-243, N-[(2R,3R)-1-{5-carbamoyl-6-[(1-methyl-1H-pyrazol-4-yl)amino]pyrazin-2-yl}-2-methylpiperidin-3-yl]-1,3-benzothiazole-6-carboxamide]	100 to 1000	≤ 10
C[C@@H]1[C@H](NC(=O)c2ccc(C3CC3)cc2)CCCN1c1cnc(C(N)=O)c(Nc2cnn(C3CCN(CC(F)(F)F)CC3)c2)n1 [Example D-293, 5-[(2R,3R)-3-(4-cyclopropylbenzamido)-2-methylpiperidin-1-yl]-3-({1-[1-(2,2,2-trifluoroethyl)piperidin-4-yl]-1H-pyrazol-4-yl}amino)pyrazine-2-carboxamide]	1000 to 10000	≤ 10
Cc1nc2cc(C(=O)N[C@@H]3CCCN(c4cnc(C(N)=O)c(Nc5cnn(C)c5)n4)[C@@H]3C)ccc2[nH]1 [Example D-261, N-[(2R,3R)-1-{5-carbamoyl-6-[(1-methyl-1H-pyrazol-4-yl)amino]pyrazin-2-yl}-2-methylpiperidin-3-yl]-2-methyl-1H-1,3-benzodiazole-5-carboxamide]	100 to 1000	≤ 10
C[C@@H]1[C@H](NC(=O)c2ccc(C3CC3)cc2)CCCN1c1cnc(C(N)=O)c(Nc2cc(C3CCN(C)CC3)ns2)n1 [Example D-312, 5-[(2R,3R)-3-(4-cyclopropylbenzamido)-2-methylpiperidin-1-yl]-3-{[3-(1-methylpiperidin-4-yl)-1,2-thiazol-5-yl]amino}pyrazine-2-carboxamide]	10 to 100	≤ 10
C[C@@H]1[C@H](NC(=O)c2ccc(C3CC3)cc2)CCCN1c1cnc(C(N)=O)c(Nc2cnn(C3CCOCC3)c2)n1 [Example D-274, 5-[(2R,3R)-3-(4-cyclopropylbenzamido)-2-methylpiperidin-1-yl]-3-{[1-(oxan-4-yl)-1H-pyrazol-4-yl]amino}pyrazine-2-carboxamide]	100 to 1000	≤ 10
C[C@@H]1[C@H](NC(=O)c2ccc(C3CC3)cc2)CCCN1c1cnc(C(N)=O)c(Nc2cnn(C3CCNCC3)c2)n1 [Example D-280, 5-[(2R,3R)-3-(4-cyclopropylbenzamido)-2-methylpiperidin-1-yl]-3-{[1-(piperidin-4-yl)-1H-pyrazol-4-yl]amino}pyrazine-2-carboxamide]	10 to 100	≤ 10
C[C@@H]1[C@H](NC(=O)c2ccc(C3CC3)cc2)CCCN1c1nnc(C(N)=O)c(Nc2cnn(C)c2)n1 [Example D-277, 3-[(2R,3R)-3-(4-cyclopropylbenzamido)-2-methylpiperidin-1-yl]-5-[(1-methyl-1H-pyrazol-4-yl)amino]-1,2,4-triazine-6-carboxamide]	100 to 1000	≤ 10
C[C@@H]1[C@H](NC(=O)c2ccc3[nH]cnc3c2)CCCN1c1cnc(C(N)=O)c(Nc2cnn(C)c2)n1 [Example D-262, N-[(2R,3R)-1-{5-carbamoyl-6-[(1-methyl-1H-pyrazol-4-yl)amino]pyrazin-2-yl}-2-methylpiperidin-3-yl]-1H-1,3-benzodiazole-5-carboxamide]	100 to 1000	≤ 10
C[C@@H]1[C@H](NC(=O)c2cc(C(C)(C)C)n[nH]2)CCCN1c1cnc(C(N)=O)c(Nc2cnn(C)c2)n1 [Example D-244, 5-[(2R,3R)-3-(3-tert-butyl-1H-pyrazole-5-amido)-2-methylpiperidin-1-yl]-3-[(1-methyl-1H-pyrazol-4-yl)amino]pyrazine-2-carboxamide]	100 to 1000	≤ 10
C[C@@H]1[C@H](NC(=O)c2ccc(C3CC3)nc2)CCCN1c1cnc(C(N)=O)c(Nc2ccc(OC3CCOCC3)cc2)n1 [Example D-309, 5-[(2R,3R)-3-(6-cyclopropylpyridine-3-amido)-2-methylpiperidin-1-yl]-3-{[4-(oxan-4-yloxy)phenyl]amino}pyrazine-2-carboxamide]	100 to 1000	≤ 10

Other lines, results leading:

IC50 (ITK) [nM]	IC50 (BTK-WT) [nM]	SMILES
100 to 1000	≤ 10	C[C@@H]1[C@H](NC(=O)c2ccc3nn(C)cc3c2)CCCN1c1cnc(C(N)=O)c(Nc2cnn(C)c2)n1 [Example D-267, N-[(2R,3R)-1-{5-carbamoyl-6-[(1-methyl-1H-pyrazol-4-yl)amino]pyrazin-2-yl}-2-methylpiperidin-3-yl]-2-methyl-2H-indazole-5-carboxamide]
100 to 1000	≤ 10	C[C@@H]1[C@H](NC(=O)c2ccc3c(c2)CCC(C)(C)O3)CCCN1c1cnc(C(N)=O)c(Nc2cnn(C)c2)n1 [Example D-258, 5-[(2R,3R)-3-(2,2-dimethyl-3,4-dihydro-2H-1-benzopyran-6-amido)-2-methylpiperidin-1-yl]-3-[(1-methyl-1H-pyrazol-4-yl)amino]pyrazine-2-carboxamide]
10 to 100	≤ 10	C[C@@H]1[C@H](NC(=O)c2ccc(C3CC3)cc2F)CCCN1c1cnc(C(N)=O)c(Nc2ccc(N3CCNCC3)c(F)c2)n1 [Example D-313, 5-[(2R,3R)-3-(4-cyclopropyl-2-fluorobenzamido)-2-methylpiperidin-1-yl]-3-{[3-fluoro-4-(piperazin-1-yl)phenyl]amino}pyrazine-2-carboxamide]
10 to 100	≤ 10	C[C@@H]1[C@H](NC(=O)c2ccc(C3CC3)nc2)CCCN1c1cnc(C(N)=O)c(Nc2ccc(OC3CCN(C)CC3)cc2)n1 [Example D-294, 5-[(2R,3R)-3-(6-cyclopropylpyridine-3-amido)-2-methylpiperidin-1-yl]-3-({4-[(1-methylpiperidin-4-yl)oxy]phenyl}amino)pyrazine-2-carboxamide]
10 to 100	≤ 10	C[C@@H]1[C@H](NC(=O)c2ccc(C(C)(C)C#N)cc2)CCCN1c1cnc(C(N)=O)c(Nc2ccc(OC3CCN(C)CC3)cc2)n1 [Example D-292, 5-[(2R,3R)-3-[4-(1-cyano-1-methylethyl)benzamido]-2-methylpiperidin-1-yl]-3-({4-[(1-methylpiperidin-4-yl)oxy]phenyl}amino)pyrazine-2-carboxamide]
100 to 1000	≤ 10	C[C@@H]1[C@H](NC(=O)N(C)C)CCCN1c1cnc(C(N)=O)c(Nc2ccc(N3CCC(F)(F)CC3)cc2)n1 [Example D-306, 3-{[4-(4,4-difluoropiperidin-1-yl)phenyl]amino}-5-[(2R,3R)-3-[(dimethylcarbamoyl)amino]-2-methylpiperidin-1-yl]pyrazine-2-carboxamide]
100 to 1000	≤ 10	Cc1cc2cc(C(=O)N[C@@H]3CCCN(c4cnc(C(N)=O)c(Nc5cnn(C)c5)n4)[C@@H]3C)ccc2o1 [Example D-246, 3-[(1-methyl-1H-pyrazol-4-yl)amino]-5-[(2R,3R)-2-methyl-3-(2-methyl-1-benzofuran-5-amido)piperidin-1-yl]pyrazine-2-carboxamide]
> 10000	> 10000	C[C@@H]1[C@H](NC(=O)c2ccc(C3CC3)cc2)CCCN1c1cnc(C(N)=O)c(Nc2cn(C)nc2C(F)(F)F)n1 [Example D-278, 5-[(2R,3R)-3-(4-cyclopropylbenzamido)-2-methylpiperidin-1-yl]-3-{[1-methyl-3-(trifluoromethyl)-1H-pyrazol-4-yl]amino}pyrazine-2-carboxamide]
100 to 1000	≤ 10	C[C@@H]1[C@H](NC(=O)c2ccc(C(O)C(F)(F)F)cc2)CCCN1c1cnc(C(N)=O)c(Nc2cnn(C)c2)n1 (single isomer, unassigned) [Example D-249]
100 to 1000	≤ 10	CCn1cc(Nc2nc(N3CCC[C@@H](NC(=O)c4ccc(C5CC5)cc4)[C@H]3C)cnc2C(N)=O)cn1 [Example D-273, 5-[(2R,3R)-3-(4-cyclopropylbenzamido)-2-methylpiperidin-1-yl]-3-[(1-ethyl-1H-pyrazol-4-yl)amino]pyrazine-2-carboxamide]
100 to 1000	≤ 10	C[C@@H]1[C@H](NC(=O)c2ccc(C(C)(O)CO)cc2)CCCN1c1cnc(C(N)=O)c(Nc2cnn(C)c2)n1 (single isomer, unassigned) [Example D-265]
1000 to 10000	10 to 100	C[C@@H]1[C@H](NC(=O)c2ccc(C3CC3)cc2C(F)(F)F)CCCN1c1cnc(C(N)=O)c(Nc2cnn(C)c2)n1 [Example D-25, 5-[(2R,3R)-3-[4-cyclopropyl-2-(trifluoromethyl)benzamido]-2-methylpiperidin-1-yl]-3-[(1-methyl-1H-pyrazol-4-yl)amino]pyrazine-2-carboxamide]
